# Results: the NIST ThermoML archive (doi:10.1016/j.jct.2013.11.004)
# ± gives the expanded uncertainty stated by the source.
# Details: DTA
row,Glass transition temperature [°C],SMILES
1,-83.17 ± 4,CCC(=O)[O-].CCn1cc[n+](C)c1 [1-ethyl-3-methylimidazolium propionate]
2,-82.92 ± 4,CCC(=O)[O-].CCCn1cc[n+](C)c1 [1-propyl-3-methylimidazolium propionate]
